The values that follow come from patent US20070026478A1, “Hemiasterlin affinity probes and their uses” (WYETH, priority 2002, published 2007).

Where “and” joins values, the source holds several entries; their conditions need not be identical. Identical values can stand only once. Like-named read-outs stand apart in the source and are kept apart here. Marks after values point to notes of the source that are not given here.

The target of assay [1] is T1, bovine brain tubulin (Bos taurus, UniProt P81947+Q6B856).
T1 construct: MAP-rich bovine brain tubulin (99% purity), Hela cell tubulin (90% purity); purchased Cytoskeleton (Denver, Colo.); host or cells: bovine brain
The assay is described as follows: Competition of [3H]-Probe 1 photolabeling of tubulin. Type of assay: binding. The note with it: for Probe 1 photolabeling of tubulin (% of no-competitor control): control (no competitor) = 100; for IC50: read-out: IC50 for inhibition of Probe 1 photolabeling of tubulin. The procedure:
(§1) Alternatively, a cytosolic preparation of KB-3-1 cell lysates (50 μg) or KB-3-1 cells (40,000 cells) were used in the place of purified tubulin above. The supernatant of mechanically disrupted cells centrifuged at 100,000×g was used as a cytosolic preparation. K-3-1 cells were prepared by growing KB-3-1 cells in a 96-well plate and rinsing them with serum free medium.
If whole cells were used, Laemmli sample buffer was then added to lyse the cells.
Low grade SDS (Sigma, catalog No. L5750) was used in the running buffer, when needed, to allow separation of α and β-tubulin subunits. Gels were fixed, stained with Coomassie blue from BioRad (Hercules, Calif.) to ensure equal loading of protein, and sliced. […] Alternatively, gels were incubated with EN^3HANCE according to the manufacturer's instructions (Life Sciences Products, Inc.), washed, and dried prior to exposure of the gel to Biomax MX film from Kodak (Rochester, N.Y.) for fluorography.
After incubation for 30 minutes at 37° C., samples were irradiated with 360 nm UV light for 30 minutes and separated by SDS-PAGE. Gels were exposed to film using fluorographic techniques.
In particular, photolabeling experiments were performed as described in section 7.1.5 above, at both room temperature and at 37° C.

Assay [2] has as its target T2, tubulin (Bos taurus, UniProt P81947+Q6B856).
T2 construct: MAP-rich bovine brain tubulin (99% purity), Hela cell tubulin (90% purity); purchased Cytoskeleton (Denver, Colo.); host or cells: bovine brain
The assay is described as follows: Competition of [3H]-Probe 2 photolabeling of tubulin. Type of assay: binding, bovine. The procedure: as §1
Competition binding experiments were performed as described in Section 7.1.5. […] Samples were then irradiated for 2 hours at 4° C. and evaluated by SDS-PAGE and fluorography.

For a further assay, the target named is T3, α-tubulin (Bos taurus, UniProt P81947+Q6B856).
T3 construct: MAP-rich bovine brain tubulin (99% purity), Hela cell tubulin (90% purity); purchased Cytoskeleton (Denver, Colo.); host or cells: bovine brain
The assay is described as follows: Subtilisin digestion of tubulin after incubation with various compounds. The note with it: 50 μM drug, subtilisin up to 60 min at room temperature. In kind it is biochemical, bovine. As to the method:
Tubulin (5 μg) was incubated with 50 μM drug at room temperature for 25 minutes and then digested under native conditions with subtilisin (0.05 μg) for 0, 5, 10, 15, 30 and 60 min at room temperature. Enzymatic digestion was stopped with 1 mM PMSF and samples were resolved by SDS-PAGE under conditions that allowed separation of α- and β-tubulin subunits. Gels were then fixed and stained with Coomassie blue.

For assay [3], the target named is T2, tubulin. Description: Separation of polymerized and free tubulin by centrifugation. Type of assay: biochemical, bovine. Particulars: 50 μM drug, centrifugation at 10,000 g and 100,000 g. As to the method:
Tubulin (5 μg) was incubated with 50 μM drug at room temperature for 25 minutes and then centrifuged at either 10,000 g for 15 minutes in a tabletop microfuge or at 100,000 g for 15 minutes in an airfuge. The supernatant was carefully removed to a fresh tube to obtain free tubulin and the pellet was solubilized in SDS-PAGE sample buffer.

The target of assay [4] is microtubule associated protein (MAP)-rich bovine brain tubulin (bovine) (UniProt P81947). Description: 100 µM non-radiolabeled Probe 1 against [3H]-Probe 1, tubulin: radiolabeled probe 2.5:0.25.
Assay [5] has the same target. The assay is described as follows: 100 µM non-radiolabeled Probe 1 against 0.25 µM [3H]-Probe 1 photolabeling of tubulin, 37° C.
Assay [6] shares this target. Description: 100 µM non-radiolabeled Probe 1 against [3H]-Probe 1, tubulin: radiolabeled probe 2.5:2.5.
Assay [7] has the same target.
For assay [8] the target is unchanged. The assay is described as follows: reversible binding to bovine brain tubulin (range given in Table 1).
The target is the same in assay [9]. The assay is described as follows: 100 µM non-radiolabeled Probe 1 against 0.25 µM [3H]-Probe 1 photolabeling of tubulin, room temperature.
The target is the same in assay [10]. Description: change of fluorescence of rhodamine-labeled tubulin.
For assay [11] the target is unchanged. The assay is described as follows: 100 µM non-radioactive Probe 2 against 0.25 µM [3H]-Probe 2 photolabeling of tubulin, room temperature.
The target in a further assay is T4, bovine MAP-rich tubulin (Bos taurus, UniProt P81947+Q6B856).
T4 construct: MAP-rich bovine brain tubulin (99% purity), Hela cell tubulin (90% purity); purchased Cytoskeleton (Denver, Colo.); host or cells: bovine brain
Description: Tubulin polymerization assay in a cell-free system. In kind it is biochemical. The note with it: 0.3 μM compound. As to the method:
In vitro tubulin polymerization assays were performed according to procedures that have been described elsewhere (Loganzo et al., Cancer Res. 2003, 63:1838-1845). Briefly, bovine MAP-rich tubulin (final concentration 1.5 mg/mL) was dissolved in cold PEM buffer containing 1 mM GTP (GPEM) and centrifuged at 12,000×g for 10 minutes at 4° C. The tubulin solution (100 μL/well) was added rapidly to wells of a low-volume, 96-well plate already containing duplicate aliquots (10 μL) of test compounds in GPEM. Final compound concentrations were 0.3 μM. Control wells contained the same final concentration of DMSO (0.3%). After initiation of the reaction, absorbance at 340 nm was measured every minute for 60 minutes at 24° C. using a SpectraMax Plus plate reader (Molecular Devices, Sunnyvale, Calif.). An increase in absorbance over time indicated an increase in turbidity resulting from tubulin polymerization.

Another assay relates to KB cells. The assay is described as follows: Cell proliferation assay in tissue culture (SRB). In kind it is cell-based. As to the method:
Cell proliferation studies were performed according to procedures described by Loganzo et al. (Cancer Res. 2003, 63:1838-1845). Briefly, KB cells were plated in 96-well plates in 100 μL media at densities pre-determined to produce 60-90% confluence at the time of analysis. Compounds, which were serially diluted into media as 2× stocks, were added to cells in duplicate. After 72 hours of incubation, cell survival was assayed by the SRB assay as described (Rabindran et al., C. Cancer Res. 1998, 58:5850-5858). IC50 values (i.e. the concentration of drug needed to inhibit cell growth by 50%) were used to evaluate drug potency.

Assay [12] addresses T1, bovine brain tubulin. Description: Reversible binding affinity assay (tubulin fluorescence). The procedure:
The affinity of both HTI-286 and of non-radiolabled Probe 1 and Probe 2, to bovine brain tubulin was determined by previously published methods (Krishnamurthy et al., Biochem., submitted). Briefly, 5 mg/mL […] tubulin prepared in PEM buffer was pre-incubated with buffer or varying concentrations of test agents in individual quartz cuvettes. The intrinsic tryptophan fluorescence of tubulin (excitation at 560 nm and maximal emission at 580 nm) was measured after pre-incubation for 90 minutes. The change in fluorescence intensity at 580 nm in the presence of compound was fitted to a quadratic equation to obtain apparent dissociation constants (KD) of the test agents.

Setting [13] is: Room Temp., 2.5 μM tubulin, 0.25 μM radiolabeled Probe 1, 100 μM competitor.
[14] abbreviates: room temperature, 400-fold molar excess (100 μM) competitor, 2.5 μM tubulin, 0.25 μM radiolabeled Probe 1.
Setting [15] is: 100 μM competitor, 2.5 μM tubulin, 0.25 μM [3H]-Probe 2, room temperature.
The mark [16] stands for this setting: room temperature, 2.5 μM tubulin, 0.25 μM radiolabeled Probe 1.

With `Nc1nc2c(ncn2[C@@H]2O[C@H](COP(=O)(O)OP(=O)(O)OP(=O)(O)O)[C@@H](O)[C@H]2O)c(=O)[nH]1` [GTP, guanosine-5′-triphosphate], the “effect on incorporation of Probe 1 into tubulin” value on bovine brain tubulin [1] (pre-incubation with between 0 and 100 μM) is recorded as “did not significantly inhibit incorporation”.

Take `CC(=O)O[C@H]1C(=O)[C@@]2(C)[C@H]([C@H](OC(=O)c3ccccc3)[C@]3(O)C[C@H](OC(=O)[C@H](O)[C@@H](NC(=O)c4ccccc4)c4ccccc4)C(C)=C1C3(C)C)[C@]1(OC(C)=O)CO[C@@H]1C[C@@H]2O` [Paclitaxel]: the “enhancement of Probe 1 photolabeling of tubulin” value at bovine brain tubulin [1] (37° C.) worked out at 73%. Also, the “Probe 1 photolabeling of tubulin (% of no-competitor control)” value on bovine brain tubulin [1] (37° C., 100 μM competitor) was found to be 173 ± 7%; at bovine brain tubulin [1] (setting [13]), 83 ± 41%. Also, the “reduction of Probe 1 photolabeling of tubulin” value (shortened to “reduction”) on bovine brain tubulin [1] (setting [14]) was “almost no effect”. For the same molecule, on tubulin [2] (setting [15]), the “Probe 2 photolabeling, % of the control value” was 113%. Also, the “enhancement of Probe 2 photolabeling” value at tubulin [2] (higher concentrations of competitor) is “this effect was lost”. Besides, the “protection of α-tubulin from subtilisin cleavage” value (shortened to “protection of α-tubulin”) on α-tubulin was “unable to cleave α-tubulin even after 60 minutes”. Moreover, the “protein recovered in pellet fractions (tubulin aggregation)” value (shortened to “protein recovered in pellet fractions”) on tubulin [3] was “significant amount of protein was recovered”.

On to “Probe 1 (4-benzoyl-N,β,β-trimethyl-L-phenylalanyl-N1-[(1S,2E)-3-carboxy-1-isopropylbut-2-enyl]-N1,3-dimethyl-L-valinamide) (peptide)”, for which the percent inhibition of tubulin labeling stood at 93% in [4] and 82% in assay [6]. In addition, the Inhibition (%) (labeling against control = 100) stood at 24% in assay [5] and 12% in assay [9]. For the same molecule, the tubulin polymerization (% inhibition) in [7] turned out to be 88%. Further, in assay [8], the Kd stood at 0.8 µM.

“Probe 2 (N,β,β-trimethyl-L-phenylalanyl-4-benzoyl-N-[(1S,2E)-3-carboxy-1-isopropyl-2-butenyl]-N,β,β-trimethyl-L-phenylalaninamide) (peptide)” yielded a fold KD against HTI-286 in assay [10] of 6 fold. In [7], this molecule gave a tubulin polymerization (% inhibition) of 69%. Moreover, in assay [8], the Kd is 1.1 µM and 6 µM. Moreover, the percent inhibition of Probe 2 labeling (so in the source) in [11] was determined as 12%.

What is called IC50 is the midpoint of a concentration-inhibition curve. For the molecule `CC[C@H](C)[C@@H]([C@@H](CC(=O)N1CCC[C@H]1[C@H](OC)[C@@H](C)C(=O)N[C@@H](Cc1ccccc1)c1nccs1)OC)N(C)C(=O)[C@@H](NC(=O)[C@H](C(C)C)N(C)C)C(C)C` [Dolastatin-10], the results for the “reduction” value at bovine brain tubulin [1] (37° C.) and at bovine brain tubulin [1] (setting [14]) were “about 75%” and “approximately 87%”, respectively. The “Probe 1 photolabeling of tubulin (% of no-competitor control)” value on bovine brain tubulin [1] (37° C., 100 μM competitor) is reported as 26^† %; at bovine brain tubulin [1] (setting [13]) it was 13 ± 3%. At bovine brain tubulin [1] (setting [16]), the IC50 is 5 µM. In addition, the “inhibition of Probe 2 labeling of tubulin” value on tubulin [2] (setting [15]) was 27%. Further, at α-tubulin, the “protection of α-tubulin” value is “unable to cleave α-tubulin even after 60 minutes”. Besides, at tubulin [3], the “protein recovered in pellet fractions” value is “significant amount of protein was recovered”.

A word on the inhibition: it is the drop in the measured response relative to a control, in per cent. Low readings indicate little suppression, high ones strong suppression. As for `CN[C@H](C(=O)N[C@H](C(=O)N(C)[C@H](/C=C(\C)C(=O)O)C(C)C)C(C)(C)c1ccc(C(=O)c2ccccc2)cc1)C(C)(C)c1ccccc1` [Probe 2, N,β,β-trimethyl-L-phenylalanyl-4-benzoyl-N-[(1S,2E)-3-carboxy-1-isopropyl-2-butenyl]-N,β,β-trimethyl-L-phenylalaninamide], the inhibition at 0.3 µM against bovine MAP-rich tubulin was 69%. In addition, the “inhibition of Probe 2 labeling of tubulin” value on tubulin [2] (setting [15]) came out at 12%. For the same molecule, the IC50 with KB cells (72 hours) came out at 0.0224 ± 0.0007 µM; in the assay on KB cells (Homo sapiens, KB, 72 h), 0.022 µM. Moreover, the Kd on bovine brain tubulin [12] (Table 1, binding to bovine brain tubulin, read-out: KD) was 1.1 to 6 µM; on bovine brain tubulin [12] (rhodamine-labeled tubulin, 90 minutes pre-incubation, read-out: apparent binding constant (KD), fluorescence method) it was 3.6 µM. Besides, the “KD relative to KD of HTI-286” value on bovine brain tubulin [12] (fluorescence method) is recorded as “approximately 6 fold”.

`CC[C@]1(O)C[C@@H]2CN(CCc3c([nH]c4ccccc34)[C@@](C(=O)OC)(c3cc4c(cc3OC)N(C)[C@H]3[C@@](O)(C(=O)OC)[C@H](OC(C)=O)[C@]5(CC)C=CCN6CC[C@]43[C@@H]65)C2)C1` [Vinblastine]: the “reduction” value on bovine brain tubulin [1] (37° C.) was “about 50%”; on bovine brain tubulin [1] (setting [14]), “approximately 72%”. Also, the “Probe 1 photolabeling of tubulin (% of no-competitor control)” value came to 52 ± 0.5% on bovine brain tubulin [1] (37° C., 100 μM competitor) and 28 ± 1% at bovine brain tubulin [1] (setting [13]). Also, on bovine brain tubulin [1] (setting [16]), the IC50 was found to be 22 µM. Further, the “inhibition of Probe 2 labeling of tubulin” value on tubulin [2] (setting [15]) was 64%. Moreover, at α-tubulin, the “protection of α-tubulin” value was “unable to cleave α-tubulin even after 60 minutes”. Besides, the “protein recovered in pellet fractions” value at tubulin [3] was “significant amount of protein was recovered”.
